Experimental data as given in patent US20050137807A1, “Method of visualization of the ADME properties of chemical substances” (priority 2003, published 2005).
In brackets after ≈: the same amount, converted by molar mass.

Assays:
[1] = cited from earlier work
[2] = cited from earlier work; remark: listed apart in the source
[3] = membrane affinity as a measure of the lipophilicity (TRANSIL technology); type: physicochemical
human serum albumin = human serum albumin (Homo sapiens, UniProt P02768); test: binding constant to human serum albumin (TRANSIL technology)
Source text: The effective molecular weight (MW) is obtained simply from the respective empirical formula of the substance. The waters solubilities and the typical administered dosages of these commercially available products are furthermore known from the literature.
The ADME maps in FIGS. 5 to 10 show by way of example a selection of commercially available pharmaceutical substances. The substance names and the associated experimental measurement values for their physicochemical properties are summarised in Table 1.

[4] = water solubility, from the literature; cited from earlier work
[5] = in vivo; cited from earlier work
[6] = log binding constant to human serum albumin, TRANSIL

Sequence of human serum albumin (P02768 25-609): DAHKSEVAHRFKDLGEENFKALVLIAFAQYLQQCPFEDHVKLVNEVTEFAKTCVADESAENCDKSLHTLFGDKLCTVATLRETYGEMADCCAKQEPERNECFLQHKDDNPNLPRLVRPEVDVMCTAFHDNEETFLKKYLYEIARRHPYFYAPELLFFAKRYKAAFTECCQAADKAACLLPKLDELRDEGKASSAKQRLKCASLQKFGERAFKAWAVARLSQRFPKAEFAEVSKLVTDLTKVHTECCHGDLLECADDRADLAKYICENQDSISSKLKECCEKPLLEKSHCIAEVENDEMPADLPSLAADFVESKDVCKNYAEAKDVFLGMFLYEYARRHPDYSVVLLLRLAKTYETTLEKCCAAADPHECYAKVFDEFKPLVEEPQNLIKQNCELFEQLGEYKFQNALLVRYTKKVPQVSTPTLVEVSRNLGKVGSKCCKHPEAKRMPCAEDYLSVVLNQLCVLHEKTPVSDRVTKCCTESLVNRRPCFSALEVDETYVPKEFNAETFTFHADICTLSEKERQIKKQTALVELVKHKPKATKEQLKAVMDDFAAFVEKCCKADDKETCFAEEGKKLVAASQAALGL

Q: With `O=C(O)COc1ccc(Cl)cc1Cl` [2,4-D] as the molecule, how does the pKa [1] read?
A: The pKa was 2.73.

Q: And the logP [2]?
A: The logP was 2.58.

Q: For `Cc1cc(Cl)ccc1OCC(=O)O` [MCPA], which pKa [1] is on record?
A: The pKa was 3.07.

Q: What about the logP [2] of the same molecule?
A: The logP was 2.75.

Q: With `CCCN(CCC)S(=O)(=O)c1ccc(C(=O)O)cc1` [Probenecid] as the molecule, how does the LogMA [3] read?
A: Its LogMA is 1.322.

Q: And the LogHSA (human serum albumin; human)?
A: Its LogHSA is −4.004.

Q: What about the Solubility [4] of the same molecule?
A: Its Solubility is 27.1 µg/mL (≈ 0.095 mM).

Q: With `CC(C)NCC(O)COc1cccc2ccccc12` (stereo not shown) [Propranolol] as the molecule, how does the LogMA [3] read?
A: Its LogMA is 3.146.

Q: And the LogHSA (human serum albumin; human)?
A: The LogHSA was −4.028.

Q: And the Solubility [4]?
A: The Solubility was 609 µg/mL (≈ 2.35 mM).

Q: For `CC(C)(C)NCC(O)c1cc(O)cc(O)c1` (stereo not shown) [Terbutaline], which LogMA [3] is on record?
A: The LogMA was 0.845.

Q: And the LogHSA (human serum albumin; human)?
A: Its LogHSA is −2.398.

Q: What about the Solubility [4] of the same molecule?
A: The Solubility was 212800 µg/mL (≈ 945 mM).

Q: For `C[C@]12CC[C@H]3[C@@H](CCC4=CC(=O)CC[C@@]43C)[C@@H]1CC[C@@H]2O` [Testosteron], which LogMA [3] is on record?
A: Its LogMA is 2.826.

Q: And the LogHSA (human serum albumin; [6])?
A: Its LogHSA is −4.912.

Q: And the Solubility [4]?
A: Its Solubility is 68 µg/mL (≈ 0.236 mM).

Q: With `CC(C)(C)NC[C@H](O)COc1nsnc1N1CCOCC1` [Timolol] as the molecule, how does the LogMA [3] read?
A: The LogMA was 1.477.

Q: And the LogHSA (human serum albumin; human)?
A: The LogHSA was −2.000.

Q: And the Solubility [4]?
A: The Solubility was 2741 µg/mL (≈ 8.66 mM).

Q: What does the source list for `CCCC(CCC)C(=O)O` [Valproic acid]?
A: LogMA [3]: 1.041; LogHSA (human serum albumin; human): −3.921; Solubility [4]: 895 µg/mL (≈ 6.21 mM)

Q: For `COc1cc(OC)nc(NC(=O)NS(=O)(=O)N(C)S(C)(=O)=O)n1` [amidosulfuron], which pKa [1] is on record?
A: The pKa was 3.58.

Q: What about the logP [2] of the same molecule?
A: The logP was 1.63.

Q: With `COc1cc(OC)nc(NC(=O)NS(=O)(=O)Cc2ccccc2C(=O)O)n1` [bensulfuron] as the molecule, how does the pKa [1] read?
A: The pKa was 5.2.

Q: What about the logP [2] of the same molecule?
A: The logP was 0.62.

Q: With `COC(=O)c1cc(Oc2ccc(Cl)cc2Cl)ccc1[N+](=O)[O-]` [bifenox] as the molecule, how does the pKa [1] read?
A: The pKa was 13.8.

Q: What about the logP [2] of the same molecule?
A: Its logP is 4.5.

Q: What does the source list for `CCC(C)n1c(=O)[nH]c(C)c(Br)c1=O` (stereo not shown) [bromacil]?
A: pKa [1]: 9.27; logP [2]: 1.88

Q: What does the source list for `CCOC(=O)c1ccccc1S(=O)(=O)NC(=O)Nc1nc(Cl)cc(OC)n1` [chlorimuron-ethyl]?
A: pKa [1]: 4.2; logP [2]: 2.7

Q: Which results are given for `COc1cc(Cl)nc(NC(=O)NS(=O)(=O)c2ccccc2C(=O)O)n1` [chlorimuron]?
A: pKa [1]: 4.2; logP [2]: 0.11

Q: Which pKa [1] does the source give for `C[C@@H](Oc1ccc(Cl)cc1Cl)C(=O)O` [dichlorprop-P] here?
A: Its pKa is 3.67.

Q: What does the source list for `CC(Oc1ccc(Oc2ccc(Cl)cc2Cl)cc1)C(=O)O` (stereo not shown) [diclofop]?
A: pKa [1]: 3.43; logP [2]: 4.5

Q: What does the source list for `CN(C)C(=O)Nc1ccc(Cl)c(Cl)c1` [diuron]?
A: pKa [1]: 13.8; logP [2]: 2.85

Q: With `COC(=O)c1ccc(C(F)(F)F)nc1S(=O)(=O)NC(=O)Nc1nc(OC)cc(OC)n1` [flupyrsulfuron-methyl-sodium] as the molecule, how does the pKa [1] read?
A: The pKa was 4.9.

Q: And the logP [2]?
A: The logP was 1.3.

Q: For `COC(=O)c1c(Cl)nn(C)c1S(=O)(=O)NC(=O)Nc1nc(OC)cc(OC)n1` [halosulfuron-methyl], which pKa [1] is on record?
A: Its pKa is 3.44.

Q: And the logP [2]?
A: The logP was 2.9.

Q: For `COc1nc(C)nc(=NC(=O)NS(=O)(=O)c2ccccc2C(=O)O)[nH]1` [metsulfuron], which pKa [1] is on record?
A: Its pKa is 3.3.

Q: What about the logP [2] of the same molecule?
A: The logP was 2.

Q: Which pKa [1] does the source give for `CON(C)C(=O)Nc1ccc(Cl)cc1` [monolinuron] here?
A: Its pKa is 13.8.

Q: And the logP [2]?
A: The logP was 2.2.

Q: For `COc1cc(OC)nc(NC(=O)NS(=O)(=O)c2ncccc2C(=O)N(C)C)n1` [nicosulfuron], which pKa [1] is on record?
A: The pKa was 4.6.

Q: What about the logP [2] of the same molecule?
A: Its logP is 0.5.

Q: With `O=C(Nc1nc(OC(F)F)cc(OC(F)F)n1)NS(=O)(=O)c1ccccc1C(=O)O` [primisulfuron] as the molecule, how does the pKa [1] read?
A: Its pKa is 3.47.

Q: And the logP [2]?
A: The logP was 0.06.

Q: Which results are given for `O=C(O)c1c(Cl)ccc2cc(Cl)cnc12` [quinclorac]?
A: pKa [1]: 4.34; logP [2]: 3.6

Q: Which pKa [1] does the source give for `COC(=O)c1ccccc1S(=O)(=O)NC(=O)Nc1nc(C)cc(C)n1` [sulfometuron-methyl] here?
A: The pKa was 5.2.

Q: And the logP [2]?
A: Its logP is 1.4.

Q: For `Cc1cc(C)nc(NC(=O)NS(=O)(=O)c2ccccc2C(=O)O)n1` [sulfometuron], which pKa [1] is on record?
A: The pKa was 5.2.

Q: And the logP [2]?
A: Its logP is −0.51.

Q: For `COc1nc(C)nc(NC(=O)NS(=O)(=O)c2ccsc2C(=O)O)n1` [thifensulfuron], which pKa [1] is on record?
A: The pKa was 4.

Q: And the logP [2]?
A: Its logP is 0.02.

Q: Which pKa [1] does the source give for `COc1nc(C)nc(NC(=O)NS(=O)(=O)c2ccccc2OCCCl)n1` [triasulfuron] here?
A: The pKa was 4.64.

Q: What about the logP [2] of the same molecule?
A: The logP was 1.6.

Q: For `COc1nc(C)nc(N(C)C(=O)NS(=O)(=O)c2ccccc2C(=O)O)n1` [tribenuron], which pKa [1] is on record?
A: Its pKa is 5.

Q: What about the logP [2] of the same molecule?
A: Its logP is −0.44.

Q: With Clomipramin as the molecule, how does the LogMA [3] read?
A: Its LogMA is 4.104.

Q: And the LogHSA (human serum albumin; [6])?
A: Its LogHSA is −2.796.

Q: And the Solubility [4]?
A: Its Solubility is 0.294 µg/mL.

Q: Which LogMA [3] does the source give for Oxacepam here?
A: Its LogMA is 2.342.

Q: What about the LogHSA (human serum albumin; [6]) of the same molecule?
A: The LogHSA was −4.000.

Q: What about the Solubility [4] of the same molecule?
A: Its Solubility is 179 µg/mL.

Q: For itraconazoles, which passive oral absorption [5] is on record?
A: The passive oral absorption was “can be passively absorbed well”.
